Test results: patent publication US20100197657A1, “2-ARYL OR HETEROARYL INDOLE DERIVATIVES” (priority 2007, published 2010)

What was measured:
[1] = test system: ASIC; settings: cited from earlier work; for inhibition of ASIC current: Psalmotoxin-1 selective for ASIC1, APETx2 selective for ASIC3
[2] = molecular target: T1, human ASIC1 (Homo sapiens, UniProt P78348); test: In vitro assay for ASIC activity, whole-cell patch clamp, hASIC1 cell line; assay type: cell-based
T1 construct: expressed in transfected cells; host or cells: HEK293
T1 sequence (P78348 1-528): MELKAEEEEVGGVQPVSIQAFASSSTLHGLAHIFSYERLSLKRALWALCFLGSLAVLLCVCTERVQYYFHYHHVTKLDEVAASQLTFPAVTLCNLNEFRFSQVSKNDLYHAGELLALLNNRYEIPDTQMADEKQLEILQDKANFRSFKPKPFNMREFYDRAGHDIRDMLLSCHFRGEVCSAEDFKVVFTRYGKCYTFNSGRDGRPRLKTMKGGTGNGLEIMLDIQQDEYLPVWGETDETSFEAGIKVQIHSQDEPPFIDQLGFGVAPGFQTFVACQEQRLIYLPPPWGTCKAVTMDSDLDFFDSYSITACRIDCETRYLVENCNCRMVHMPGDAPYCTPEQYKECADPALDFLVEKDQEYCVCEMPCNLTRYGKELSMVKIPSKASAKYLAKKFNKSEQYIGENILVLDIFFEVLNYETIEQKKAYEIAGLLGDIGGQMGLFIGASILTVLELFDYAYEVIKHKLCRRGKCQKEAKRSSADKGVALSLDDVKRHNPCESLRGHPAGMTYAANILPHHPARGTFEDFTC
Description: Cell Preparation: Human embryonic kidney cells (HEK293) stably expressing the human ASIC ion channel, are grown to 70-90% confluence in T75 cell culture flasks. Cells are lifted by removing the growth media and incubating with 3 ml of warmed (37° C.) 50/50 Trypsin/Dulbecco's Solution (GIBCO, USA) for 4-6 minutes. 7 ml of pH7.4_HBS (see Solutions and Drugs) is then added to block Trypsin activity. The cell suspension is placed into a 10 ml centrifuge tube and centrifuged for 1 minute @ 150×G. After centrifugation, the supernatant is aspirated and the cell pellet is re-suspended in 2-5 ml of pH7.4_HBS for a final cell density of ˜0.6×10^6 cells/ml. For whole-cell patch clamp, approximately 1000 cells are placed in a recording chamber containing standard bath solution for electrophysiological recording. […]
Electrophysiological recording: Patch clamp recording pipettes were pulled from borosilicate glass and typically had 2-4 MOhm resistances. Whole cell currents were recorded with a patch clamp amplifier (Multiclamp 700B, Axon Instruments Inc). […] After a stable ASIC current was determined, inhibition of acid evoked current was determined by multiple applications of increasing concentrations (3-fold dilution) of compound. Inhibition of current was expressed as percent inhibition vs. baseline current. […] IC50s were determined using the Hill Equation.

[3] = molecular target: T2, human ASIC3 (Homo sapiens, UniProt Q9UHC3); test: In vitro assay for ASIC activity, whole-cell patch clamp, hASIC3 cell line; assay type: cell-based; settings: for inhibition at 10 µM: percent inhibition vs. baseline current, read-out: levels of inhibition of acid-evoked ASIC current; for inhibition of human ASIC3 current with increasing concentrations (FIG. 1): increasing concentrations of compound; for inhibition of inward current evoked by pH5.5 in the hASIC3 cell line: pre-application of 300 nM; for block of inward current evoked by pH5.5 in the hASIC3 cell line: pre-application of 10 μM
T2 construct: expressed in transfected cells; host or cells: HEK293
T2 sequence (Q9UHC3 1-531): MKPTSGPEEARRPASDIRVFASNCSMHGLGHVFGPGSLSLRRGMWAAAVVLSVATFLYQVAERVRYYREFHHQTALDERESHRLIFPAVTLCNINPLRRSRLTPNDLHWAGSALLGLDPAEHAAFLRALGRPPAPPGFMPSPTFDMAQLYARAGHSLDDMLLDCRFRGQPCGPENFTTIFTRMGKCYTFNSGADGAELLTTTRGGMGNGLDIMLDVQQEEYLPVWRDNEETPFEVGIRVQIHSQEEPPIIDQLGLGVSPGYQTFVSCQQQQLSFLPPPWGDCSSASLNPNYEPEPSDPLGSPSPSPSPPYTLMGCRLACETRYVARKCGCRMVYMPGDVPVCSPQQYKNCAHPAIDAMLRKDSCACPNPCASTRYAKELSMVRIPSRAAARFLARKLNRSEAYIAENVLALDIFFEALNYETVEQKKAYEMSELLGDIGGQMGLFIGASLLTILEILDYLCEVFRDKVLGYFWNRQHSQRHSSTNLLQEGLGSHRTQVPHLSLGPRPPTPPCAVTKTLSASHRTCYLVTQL
Description: Cell Preparation: Human embryonic kidney cells (HEK293) stably expressing the human ASIC ion channel, are grown to 70-90% confluence in T75 cell culture flasks. Cells are lifted by removing the growth media and incubating with 3 ml of warmed (37° C.) 50/50 Trypsin/Dulbecco's Solution (GIBCO, USA) for 4-6 minutes. 7 ml of pH7.4_HBS (see Solutions and Drugs) is then added to block Trypsin activity. The cell suspension is placed into a 10 ml centrifuge tube and centrifuged for 1 minute @ 150×G. After centrifugation, the supernatant is aspirated and the cell pellet is re-suspended in 2-5 ml of pH7.4_HBS for a final cell density of ˜0.6×10^6 cells/ml. For whole-cell patch clamp, approximately 1000 cells are placed in a recording chamber containing standard bath solution for electrophysiological recording.
Solutions and Drugs: The intracellular solution contains (mM): 119 K-gluconate, 15 KCl, 3.2 MgCl2, 5 EGTA, 5 HEPES, 5 K2ATP, pH 7.3. The standard bath solution (pH7.4_HBS) contains (mM): 150 NaCl, 5 KCl, 2 CaCl2, 1 MgCl2, 10 HEPES, 12 Dextrose, pH 7.4. The acid-activation bath solution (pH5.5_MBS) contains (mM): 150 NaCl, 5 KCl, 2 CaCl2, 1 MgCl2, 10 MES, 12 Dextrose, pH 5.5. Test compounds were prepared as 2 or 10 mM stock solutions in DMSO and diluted in either pH7.4_HBS or pH5.5_MBS to final concentration.
Electrophysiological recording: Patch clamp recording pipettes were pulled from borosilicate glass and typically had 2-4 MOhm resistances. Whole cell currents were recorded with a patch clamp amplifier (Multiclamp 700B, Axon Instruments Inc). Holding and test potential was −60 mV. Control and compound solutions perfused the vicinity of the cell with flow controlled by computer-operated solenoid valves. 10-90% solution exchange typically took <20 ms. After establishment of whole cell configuration, cells were perfused with pH7.4_HBS. Baseline ASIC current was determined by application of pH5.5_MBS at two minute intervals. After a stable ASIC current was determined, inhibition of acid evoked current was determined by multiple applications of increasing concentrations (3-fold dilution) of compound. Inhibition of current was expressed as percent inhibition vs. baseline current. A minimum of three independent determinations at each concentration of compound was used for each data point. IC50s were determined using the Hill Equation.

CC(C)C1c2cc(C3CC3c3ccc4cc(C(=N)N)ccc4c3)ccc2CCN1C (stereo not shown) [A-317567]
increase in potency vs. amiloride ([1]; in vivo and in vitro assays): > 10 fold

N=C(N)c1ccc2[nH]c(-c3cc(Cl)cc(Cl)c3)cc2c1 [EXAMPLE 1, 2-(3,5-Dichlorophenyl)-1H-indole-5-carboximidamide]
inhibition of proton-evoked current in HEK cells expressing human ASIC1 (FIG. 2) ([2]; HEK cells, human ASIC1): inhibits proton-evoked current
inhibition of inward current evoked by pH6.5 in the hASIC1 cell line ([2]; pre-application of 300 nM, pH6.5): inhibits a large fraction of this current
inhibition of proton-evoked current in HEK cells expressing human ASIC3 (FIG. 2) ([3]; HEK cells, human ASIC3): inhibits proton-evoked current
inhibition at 10 µM [3]: > 20%
inhibition of human ASIC3 current with increasing concentrations (FIG. 1) [3]: dose dependent inhibition
inhibition of inward current evoked by pH5.5 in the hASIC3 cell line [3]: inhibits the majority of the proton-evoked current

N=C(N)c1ccc2[nH]c(-c3cccc(CO)c3)cc2c1 [EXAMPLE 2]
block of inward current evoked by pH5.5 in the hASIC3 cell line [3]: did not block the proton-evoked current

N=C(N)c1ccc2[nH]c(-c3cc(Cl)cc(Br)c3)cc2c1 [EXAMPLE 3]
block of inward current evoked by pH5.5 in the hASIC3 cell line [3]: blocked the proton-evoked current

N=C(N)c1ccc2[nH]c(-c3cc(Br)cc(Br)c3)cc2c1 [EXAMPLE 4]
inhibition of human ASIC3 current with increasing concentrations (FIG. 1) [3]: dose dependent inhibition
inhibition of inward current evoked by pH5.5 in the hASIC3 cell line [3]: inhibited the proton-evoked current

N=C(Nc1ccccc1)c1ccc2[nH]c(-c3cc(Cl)cc(Cl)c3)cc2c1 [compound 21, 2-(3,5-dichlorophenyl)-N-phenyl-1H-indole-5-carboximidamide]
inhibition at 10 µM [3]: > 20%

NCc1ccc2[nH]c(-c3ccccc3)c(CN)c2c1 [compound 28, (2-Phenyl-1H-indole-3,5-diyl)dimethanamine]
inhibition at 10 µM [3]: > 20%

NCc1ccc2[nH]c(-c3cc(Cl)nc(Cl)c3)cc2c1 [compound 50, 1-[2-(2,6-Dichloropyridin-4-yl)-1H-indol-5-yl]methanamine]
inhibition at 10 µM [3]: > 20%

APETx2
inhibition of ASIC current [1]: inhibit ASIC current at nM concentrations

Psalmotoxin-1 (EDCIPKWKGCVNRHGDCCEGLECWKRRRSFEVCVPKTPKT; Pi-theraphotoxin-Pc1a; UniProt P60514 1-40, looked up)
inhibition of ASIC current [1]: inhibit ASIC current at nM concentrations
